Measurements reported in article PMC5077990, “P53 activation inhibits all types of hematopoietic progenitors and all stages of megakaryopoiesis” (Oncotarget, 2016).

Key:
[1] = design: method as in PMID 23084521, PMID 24309210; details: clinical and preclinical data in rats and monkeys; cited from earlier work
[2] = tested on: BFU-E (Burst Forming Unit-Erythroid) progenitors from CD34+ cells; assay: Colony assay in methylcellulose, BFU-E; format: cell-based, human; details: CD34+ cells seeded in methylcellulose in the presence of compound; compared to untreated control
Procedure: (§1) CD34^+cells were obtained from leukapheresis samples after mobilization of donors after informed consent in agreement with our Institute Ethic Committee (Assistance Publique des Hôpitaux de Paris) and in accordance with the Declaration of Helsinki. CD34^+cells were isolated by a positive selection using an immunomagnetic cell sorting system (AutoMacs; Miltenyi Biotec, Bergisch Gladbach, Germany). 500 to 1000 normal CD34^+cells were plated either in 1% methylcellulose assay (StemCells technologies, Vancouver, Canada) to quantify erythroid (BFU-E) and granulo-monocytic (CFU-GM) progenitors or in serum-free fibrin clot assay for quantification of MK progenitors (CFU-MK) in the absence or presence of various concentration of SAR405838 or MI-219. Cultures in methylcellulose were stimulated by addition of human recombinant growth factors: G-CSF (20 ng/mL), IL-3 (10 ng/mL) SCF (25 ng/mL, Biovitrum AB, Stockholm, Sweden), IL-6 (10 ng/mL), FLT3 (10 ng/mL) and human EPO (1 U/mL). Cultures in fibrin clot were stimulated with 10 ng/mL TPO (Kirin Brewery, Tokyo, Japan) and 25 ng/mL SCF. BFU-E and CFU-GM colonies were enumerated at day 14 of culture. CFU-MK colonies were enumerated at day 12 after labeling by an indirect immuno-alkaline phosphatase staining technique using an anti-CD41a monoclonal antibody (MoAb; Becton Dickinson, le Pont de Claix, France; clone HIP8), as previously described.

[3] = tested on: CFU-GM (Colony Forming Unit-Granulocyte Macrophage) progenitors from CD34+ cells; assay: Colony assay in methylcellulose, CFU-GM; format: cell-based, human; details: CD34+ cells seeded in methylcellulose in the presence of compound; compared to untreated control
Procedure: as §1, with “BFU-E and CFU-GM colonies were enumerated at day 14 of culture.” left out

[4] = tested on: CFU-MK (Colony Forming Unit-Megakaryocyte) progenitors from CD34+ cells; assay: Colony assay in fibrin clot, CFU-MK; format: cell-based, human; details: CD34+ cells seeded in fibrin clot in the presence of compound; compared to untreated control
Procedure: as §1, with “CFU-MK colonies were enumerated at day 12 after labeling by an indirect immuno-alkaline phosphatase staining technique using an anti-CD41a monoclonal antibody (MoAb; Becton Dickinson, le Pont de Claix, France; clone HIP8), as previously described.” left out

[5] = tested on: Day 6 megakaryoblasts (ploidization); assay: MK ploidy by flow cytometry (CD41/CD42/vital Hoechst staining); format: cell-based, human; details: day 6 megakaryoblasts treated 72 hours, analysed day 9; SAR405838 at 1 μM; untreated control 4.4 N
Procedure: First, we investigated if MDM2 inhibitors affect MK ploidization. SAR405838 induced a significant reduction in the mean ploidy (3.0 N at the dose of 1 μM versus 4.4 N for untreated control or for MI-219 treatment) (Supplementary Figure S1). page 1: P53 activation inhibits all types of hematopoietic progenitors and all stages of megakaryopoiesis SUPPLEMENTARY FIGURE Supplementary Figure S1: Effect of SAR405838 on polyploidization. Day 6 megakaryoblasts were treated for 72 hours with various doses of MI-219 or SAR405838. At day 9, ploidy was analyzed by flow cytometry using a CD41/CD42/vital Hoechst staining. N represents the mean ploidy. As shown, SAR405838 induced a significant reduction in the mean ploidy (3.0N at the dose of 1μM versus 4.4N for control or for MI-219 treatment). The Figure illustrates a representative experiment in triplicate. Two other experiments in triplicate gave similar results. […]

[6] = tested on: p53 pathway in megakaryocytes (MKs); assay: p53 pathway proteins and transcripts in MKs (western-blot, qRT-PCR); format: cell-based, human; details: day 7-MKs (legend: day 10-MK), 5 μM for 24 or 48 hours
Procedure: We also explored the effects of p53 stabilization at a later stage of megakaryocytic differentiation. […] Day 7-MKs were treated with 5 μM Nutlin 3a for 24 or 48 hours, which led to an increase in p53, p21, BAX, BCL2 and BCL-XL levels, confirming a functional p53 activity (Figure 6A). […] Similar results were found with day 6-megakaryoblasts treated with two doses of SAR405838 for 72 hours (Figure 6D/6E) without any major effect on the percentage of CD41^+ cells (Figure 6F). […] As shown in Figure 6D/6E, at the dose of 0.5 μM the SAR405838 induced a 50% decreased in the number of viable cells while the apoptotic cells reached 50% of the total cells. We checked if the effect of SAR405838 on MKs could be reverted by the addition of high TPO doses. CD34^+ progenitors were cultured in serum-free medium supplemented with SCF and low dose of TPO (1 ng/mL) for 6 days. Day 6-megakaryoblasts were then treated with 1.5 μM of SAR405838 for 48 hours and various doses of TPO.
In parallel, the expression of P53, BAK, BCL2L1, NOXA, PUMA, BAX, P21 and P53 were quantified by qRT-PCR related to HPRT. C. […] (n=3). […]
PCRs were carried out in the ABI Prism GeneAmp 5700 (Perkin-Elmer) using the Power SYBR-Green PCR Master Mix (ABI) containing the specific primers. The expression levels of all genes were calculated relatively to HPRT or to PPIA housekeeping gene.
Proteins were quantified by Image J software.

SMILES: CCOc1cc(C(C)(C)C)ccc1C1=N[C@@](C)(c2ccc(Cl)cc2)[C@@](C)(c2ccc(Cl)cc2)N1C(=O)N1CCN(CCCS(C)(=O)=O)CC1 [RG7112]
- hematological adverse effect [1]: major thrombocytopenia

SMILES: CC(C)(C)C[C@H]1N[C@@H](C(=O)NCC[C@H](O)CO)[C@H](c2cccc(Cl)c2)[C@@]12C(=O)Nc1cc(Cl)c(F)cc12.Cl [MI-219]
- dose inducing a 50% reduction of BFU-E numbers [2]: significant less potent activity compared to SAR405838
- dose inducing a 50% reduction of CFU-GM numbers [3]: significant less potent activity compared to SAR405838
- dose inducing a 50% reduction of CFU-MK numbers [4]: significant less potent activity compared to SAR405838
- mean ploidy [5]: 4.4 N

SMILES: COc1ccc(C2=N[C@@H](c3ccc(Cl)cc3)[C@@H](c3ccc(Cl)cc3)N2C(=O)N2CCNC(=O)C2)c(OC(C)C)c1 [Nutlin 3a]
- p53, p21, BAX, BCL2 and BCL-XL levels (western-blot) [6]: increase

SMILES: COc1ccc(C2=N[C@@H](c3ccc(Cl)cc3)[C@@H](c3ccc(Cl)cc3)N2C(=O)N2CCNC(=O)C2)c(OC(C)C)c1 [Nutlin]
- hematological adverse effect [1]: major thrombocytopenia
